Common to all, as to format: in vivo
Data set [1] deals with Beet Armyworm (Spodoptera exigua, "BAW"). The experiment in a line: Bioassay on beet armyworm, 128-well diet tray assay. The conditions noted are these: 168 h, 50 μg/cm^2 of test compound on artificial diet, second instar larvae, 25° C., five to seven days, average of eight wells, read-out: BAW % Control (or Mortality) rating. The procedure: (§1) Bioassays on Beet Armyworm (Spodoptera exigua, “BAW”) and Cabbage Looper (Trichoplusia ni, “CL”)
(§2) Certain molecules disclosed in this document were tested against BAW and CL using procedures described in the following examples. In the reporting of the results, the “BAW & CL Rating Table” was used (See Table Section).
Bioassays on BAW were conducted using a 128-well diet tray assay. one to five second instar BAW larvae were placed in each well (3 mL) of the diet tray that had been previously filled with 1 mL of artificial diet to which 50 μg/cm^2 of the test compound (dissolved in 50 μL of 90:10 acetone-water mixture) had been applied (to each of eight wells) and then allowed to dry. Trays were covered with a clear self-adhesive cover and held at 25° C., 14:10 light-dark cycle for five to seven days. Percent mortality was recorded for the larvae in each well; activity in the eight wells was then averaged. The results are indicated in the table entitled “Table ABC: Biological Results” (See Table Section).

The subject of data set [2] is Cabbage Looper (Trichoplusia ni, "CL"). Description: Bioassay on cabbage looper, 128-well diet tray assay. The conditions noted are these: 168 h, 50 μg/cm^2 of test compound on artificial diet, second instar larvae, 25° C., five to seven days, average of eight wells, read-out: CL % Control (or Mortality) rating. How it is done: as §1, §2
Bioassays on CL were conducted using a 128-well diet tray assay. one to five second instar CL larvae were placed in each well (3 mL) of the diet tray that had been previously filled with 1 mL of artificial diet to which 50 μg/cm^2 of the test compound (dissolved in 50 μL of 90:10 acetone-water mixture) had been applied (to each of eight wells) and then allowed to dry. Trays were covered with a clear self-adhesive cover and held at 25° C., 14:10 light-dark cycle for five to seven days. Percent mortality was recorded for the larvae in each well; activity in the eight wells was then averaged. The results are indicated in the table entitled “Table ABC: Biological Results” (See Table Section).

Data set [3] concerns Yellow Fever Mosquito (Aedes aegypti, "YFM"). Description: Bioassay on yellow fever mosquito larvae, 96-well plate assay. The conditions noted are these: 4000 ppm DMSO master solution diluted with 90:10 water:acetone; about 1 day-old larvae; room temperature; scored after 3 days. How it is done: Bioassays On Yellow Fever Mosquito (Aedes aegypti, “YFM”)
Certain molecules disclosed in this document were tested against YFM using procedures described in the following paragraph. In the reporting of the results, the “YFM Rating Table” was used (See Table Section).
Master plates containing 400 μg of a molecule dissolved in 100 μL of dimethyl sulfoxide (DMSO) (equivalent to a 4000 ppm solution) are used. A master plate of assembled molecules contains 15 μL per well. To this plate, 135 μL of a 90:10 water:acetone mixture is added to each well. A robot (Biomek® NXP Laboratory Automation Workstation) is programmed to dispense 15 μL aspirations from the master plate into an empty 96-well shallow plate (“daughter” plate). There are 6 reps (“daughter” plates) created per master. The created daughter plates are then immediately infested with YFM larvae.
The day before plates are to be treated, mosquito eggs are placed in Millipore water containing liver powder to begin hatching (4 g. into 400 mL). After the daughter plates are created using the robot, they are infested with 220 μL of the liver powder/larval mosquito mixture (about 1 day-old larvae). After plates are infested with mosquito larvae, a non-evaporative lid is used to cover the plate to reduce drying. Plates are held at room temperature for 3 days prior to grading. After 3 days, each well is observed and scored based on mortality.

`Cc1cc(-c2ncn(-c3ccc(OC(F)(F)F)cc3)n2)ccc1NC(=O)/N=C1\SCC(=O)N1c1cc2c(cc1COCC(F)(F)F)OCO2` [F1]: the mortality at 50 µg/cm2 in data set [1] and in data set [2] was 50 to 100% throughout.
Regarding `O=C(/N=C1\SCC(=O)N1c1cc2c(cc1COCC(F)(F)F)OCO2)Nc1ccc(-c2ncn(-c3ccc(OC(F)(F)F)cc3)n2)cc1F` [F2, (Z)-1-(2-Fluoro-4-(1-(4-(trifluoromethoxy)phenyl)-1H-1,2,4-triazol-3-yl)phenyl)-3-(4-oxo-3-(6-((2,2,2-trifluoroethoxy)methyl)benzo[d][1,3]dioxol-5-yl)thiazolidin-2-ylidene)urea], the mortality at 50 µg/cm2 in data set [1] and in data set [2] was 50 to 100% each time.
In the case of `O=C(/N=C1\SCC(=O)N1c1cc2c(cc1COCC(F)(F)F)OCO2)Nc1ccc(-c2ncn(-c3ccc(S(F)(F)(F)(F)F)cc3)n2)cc1F` [F3, (Z)-1-(2-Fluoro-4-(1-(4-(pentafluoro-λ^6-sulfaneyl)phenyl)-1H-1,2,4-triazol-3-yl)phenyl)-3-(4-oxo-3-(6-((2,2,2-trifluoroethoxy)methyl)benzo[d][1,3]dioxol-5-yl)thiazolidin-2-ylidene)urea], the mortality at 50 µg/cm2 in data set [1] and in data set [2] was 50 to 100% throughout.
For the molecule `O=C(/N=C1\SCC(=O)N1c1cccc2occc12)Nc1ccc(-c2ncn(-c3ccc(OC(F)(F)F)cc3)n2)cc1F` [F4, (Z)-1-(3-(Benzofuran-4-yl)-4-oxothiazolidin-2-ylidene)-3-(2-fluoro-4-(1-(4-(trifluoromethoxy)phenyl)-1H-1,2,4-triazol-3-yl)phenyl)urea], the mortality at 50 µg/cm2 in data set [1] and in data set [2] was 50 to 100% in each case.
In the case of `O=C(/N=C1\SCC(=O)N1c1cccc2ccoc12)Nc1ccc(-c2ncn(-c3ccc(OC(F)(F)F)cc3)n2)cc1F` [F5, (Z)-1-(3-(Benzofuran-7-yl)-4-oxothiazolidin-2-ylidene)-3-(2-fluoro-4-(1-(4-(trifluoromethoxy)phenyl)-1H-1,2,4-triazol-3-yl)phenyl)urea], the mortality at 50 µg/cm2 in data set [1] and in data set [2] was 50 to 100% in each case.
On to `O=C(/N=C1\SCC(=O)N1c1cccc2ocnc12)Nc1ccc(-c2ncn(-c3ccc(OC(F)(F)F)cc3)n2)cc1F` [F7, (Z)-1-(3-(Benzo[d]oxazol-4-yl)-4-oxothiazolidin-2-ylidene)-3-(2-fluoro-4-(1-(4-(trifluoromethoxy)phenyl)-1H-1,2,4-triazol-3-yl)phenyl)urea], for which the mortality at 50 µg/cm2 in data set [1] and in data set [2] was 50 to 100% throughout.
As for `O=C(/N=C1\SCC(=O)N1c1cccc2c1COC2)Nc1ccc(-c2ncn(-c3ccc(OC(F)(F)F)cc3)n2)cc1F` [F8, (Z)-1-(3-(1,3-Dihydroisobenzofuran-4-yl)-4-oxothiazolidin-2-ylidene)-3-(2-fluoro-4-(1-(4-(trifluoromethoxy)phenyl)-1H-1,2,4-triazol-3-yl)phenyl)urea], the mortality at 50 µg/cm2 in data set [1] and in data set [2] was 50 to 100% in each case.
Turning to `O=C(/N=C1\SCC(=O)N1c1cccc2c1OCC2)Nc1ccc(-c2ncn(-c3ccc(OC(F)(F)F)cc3)n2)cc1F` [F9, (Z)-1-(3-(2,3-Dihydrobenzofuran-7-yl)-4-oxothiazolidin-2-ylidene)-3-(2-fluoro-4-(1-(4-(trifluoromethoxy)phenyl)-1H-1,2,4-triazol-3-yl)phenyl)urea], the mortality at 50 µg/cm2 in data set [1] and in data set [2] was 50 to 100% in each case.
For the molecule `O=C(/N=C1\SCC(=O)N1c1cccc2c1CCC2)Nc1ccc(-c2ncn(-c3ccc(OC(F)(F)F)cc3)n2)cc1F` [F10, (Z)-1-(3-(2,3-Dihydro-1H-inden-4-yl)-4-oxothiazolidin-2-ylidene)-3-(2-fluoro-4-(1-(4-(trifluoromethoxy)phenyl)-1H-1,2,4-triazol-3-yl)phenyl)urea], the mortality at 50 µg/cm2 in data set [1] and in data set [2] was 50 to 100% each time.
As for `O=C(/N=C1\SCC(=O)N1c1ccc2c(c1)C(=O)OC2=O)Nc1ccc(-c2ncn(-c3ccc(OC(F)(F)F)cc3)n2)cc1F` [F11, (Z)-1-(3-(1,3-Dioxo-1,3-dihydroisobenzofuran-5-yl)-4-oxothiazolidin-2-ylidene)-3-(2-fluoro-4-(1-(4-(trifluoromethoxy)phenyl)-1H-1,2,4-triazol-3-yl)phenyl)urea], the mortality (usually the percentage killed) at 50 µg/cm2 in data set [1] was 0%; in data set [2] it was 50 to 100%.
`CN1CCOc2c1cccc2N1C(=O)CS/C1=N\C(=O)Nc1ccc(-c2ncn(-c3ccc(OC(F)(F)F)cc3)n2)cc1F` [F12, (Z)-1-(2-Fluoro-4-(1-(4-(trifluoromethoxy)phenyl)-1H-1,2,4-triazol-3-yl)phenyl)-3-(3-(4-methyl-3,4-dihydro-2H-benzo[b][1,4]oxazin-8-yl)-4-oxothiazolidin-2-ylidene)urea]: the mortality at 50 µg/cm2 in data set [1] and in data set [2] was 50 to 100% throughout. The “YFM % Control (or Mortality) rating” value in data set [3] was “A (80-100)”.
As to `Cn1ccc2cc(N3C(=O)CS/C3=N\C(=O)Nc3ccc(-c4ncn(-c5ccc(C(F)(F)C(F)(F)F)cc5)n4)cc3F)ccc21` [F24, (Z)-1-(2-Fluoro-4-(1-(4-(perfluoroethyl)phenyl)-1H-1,2,4-triazol-3-yl)phenyl)-3-(3-(1-methyl-1H-indol-5-yl)-4-oxothiazolidin-2-ylidene)urea], the “YFM % Control (or Mortality) rating” value in data set [3] is given as “D (No activity noticed in this bioassay)”.
`Cc1cc(-c2ncn(-c3ccc(OC(F)(F)C(F)(F)F)cc3)n2)ccc1NC(=O)/N=C1\SCC(=O)N1c1cccc2c1CCO2` [F25, (Z)-1-(3-(2,3-Dihydrobenzofuran-4-yl)-4-oxothiazolidin-2-ylidene)-3-(2-methyl-4-(1-(4-(perfluoroethoxy)phenyl)-1H-1,2,4-triazol-3-yl)phenyl)urea]: the mortality at 50 µg/cm2 in data set [1] and in data set [2] was 50 to 100% throughout.
Turning to `Cc1cc(-c2ncn(-c3ccc(OC(F)(F)C(F)(F)F)cc3)n2)ccc1NC(=O)/N=C1\SCC(=O)N1c1cccc2ccccc12` [F26, (Z)-1-(2-Methyl-4-(1-(4-(perfluoroethoxy)phenyl)-1H-1,2,4-triazol-3-yl)phenyl)-3-(3-(naphthalen-1-yl)-4-oxothiazolidin-2-ylidene)urea], the mortality at 50 µg/cm2 in data set [1] and in data set [2] was 50 to 100% in each case.
For the molecule `Cc1cc(-c2ncn(-c3ccc(OC(F)(F)C(F)(F)F)cc3)n2)ccc1NC(=O)/N=C1\SCC(=O)N1c1cccc2c1OCC2` [F28, (Z)-1-(3-(2,3-Dihydrobenzofuran-7-yl)-4-oxothiazolidin-2-ylidene)-3-(2-methyl-4-(1-(4-(perfluoroethoxy)phenyl)-1H-1,2,4-triazol-3-yl)phenyl)urea], in data set [3], the “YFM % Control (or Mortality) rating” value was “A (80-100)”.
Same read-out and setting: as for `Cn1ccc2c(N3C(=O)CS/C3=N\C(=O)Nc3ccc(-c4ncn(-c5ccc(C(F)(F)C(F)(F)F)cc5)n4)cc3F)cccc21` [F30, (Z)-1-(2-Fluoro-4-(1-(4-(perfluoroethyl)phenyl)-1H-1,2,4-triazol-3-yl)phenyl)-3-(3-(1-methyl-1H-indol-4-yl)-4-oxothiazolidin-2-ylidene)urea], the entry is “A (80-100)”; as for `Cc1cc(-c2ncn(-c3ccc(OC(F)(F)C(F)(F)F)cc3)n2)ccc1NC(=O)/N=C1\SCC(=O)N1c1ccc2c(ccn2C)c1` [F31, (Z)-1-(3-(1-Methyl-1H-indol-5-yl)-4-oxothiazolidin-2-ylidene)-3-(2-methyl-4-(1-(4-(perfluoroethoxy)phenyl)-1H-1,2,4-triazol-3-yl)phenyl)urea], “A (80-100)”.
The same measure, in the same setting: then `O=C(/N=C1\SCC(=O)N1c1cccc2ncccc12)Nc1ccc(-c2ncn(-c3ccc(C(F)(F)C(F)(F)F)cc3)n2)cc1F` [F34, (Z)-1-(2-Fluoro-4-(1-(4-(perfluoroethyl)phenyl)-1H-1,2,4-triazol-3-yl)phenyl)-3-(4-oxo-3-(quinolin-5-yl)thiazolidin-2-ylidene)urea], with “A (80-100)”.

These data come from patent US20240057606A1, “MOLECULES HAVING CERTAIN PESTICIDAL UTILITIES, AND INTERMEDIATES, COMPOSITIONS, AND PROCESSES RELATED THERETO” (priority 2020, published 2024).
